Measured values from patent publication US10738041B2, “Ferroportin inhibitors” (Vifor (International) AG, priority 2015, dated 2020).

Columns and labels:
human Fpn = molecular target: T1, human Fpn (Homo sapiens, UniProt Q9NP59); test: Biophysical Ferroportin-Hepcidin Binding Assay (fluorescence polarization)
T1 construct: FLAG (C); made in house; host or cells: Pichia pastoris
T1 sequence (Q9NP59 1-571): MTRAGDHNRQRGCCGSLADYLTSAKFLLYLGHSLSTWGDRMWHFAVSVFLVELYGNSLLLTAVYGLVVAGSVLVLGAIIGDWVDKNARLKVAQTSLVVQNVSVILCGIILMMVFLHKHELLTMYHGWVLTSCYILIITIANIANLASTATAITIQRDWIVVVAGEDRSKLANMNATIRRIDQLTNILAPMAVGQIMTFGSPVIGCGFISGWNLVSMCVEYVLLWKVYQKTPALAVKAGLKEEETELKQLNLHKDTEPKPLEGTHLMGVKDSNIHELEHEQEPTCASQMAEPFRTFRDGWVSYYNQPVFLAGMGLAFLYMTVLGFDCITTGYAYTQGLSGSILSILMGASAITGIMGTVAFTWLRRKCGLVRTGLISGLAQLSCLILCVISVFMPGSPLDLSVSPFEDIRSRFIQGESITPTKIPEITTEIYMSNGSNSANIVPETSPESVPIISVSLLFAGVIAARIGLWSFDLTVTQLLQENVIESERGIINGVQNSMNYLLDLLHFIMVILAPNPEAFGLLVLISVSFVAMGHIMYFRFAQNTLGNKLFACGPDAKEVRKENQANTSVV
Method in brief: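 Purified human Fpn (C-terminal FLAG tag, expressed in Pichia pastoris) at 1 μM final was incubated with 20 nM TMR-hepcidin and serially diluted compounds in duplicate for 90 min at room temperature. Binding inhibition was read as a dose-dependent fall in FP (mP), calculated from parallel and perpendicular fluorescence.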

human Fpn-GFP fusion [1] = molecular target: T2, human Fpn-GFP fusion (Homo sapiens, UniProt Q9NP59); test: Inhibition of ferroportin mediated iron export activity in an iron response assay (BLAzer); assay type: cell-based
T2 construct: expressed in transfected cells; host or cells: HEK-293 cell line #354 (derivative of HEK-293 Tet-ON Advanced, Clontech)
T2 sequence (Q9NP59 1-571): T1 sequence (Q9NP59 1-571)
Method in brief: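 HEK-293 Tet-ON line with doxycycline-inducible Fpn-GFP and a ferritin promoter/IRE-BLA reporter was treated overnight at 37° C with compound dilutions in quadruplicate.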

human Fpn-GFP fusion [2] = molecular target: T2, human Fpn-GFP fusion; test: Ferroportin Internalization and Degradation Assay (FACS); assay type: cell-based; conditions: read-out: EC50 ferroportin internalization and degradation; average of multiple measurements; Fpn-GFP MFI, HEK-293 cell line #354, FACS
Protocol: Growing HEK-293 #354 cells in doxycycline containing media induced expression of human Fpn-GFP fusion protein on the cell surface. […] Small molecular weight Fpn inhibitor compounds were tested for dose-dependent effects on the Fpn-GFP mean fluorescence intensity (MFI) on HEK-293 cell line #354, as described below. HEK #354 cells were harvested from ca. 80% confluent cultures, seeded at 0.6×10^6 (cells/ml in DMEM/F12 GlutaMAX™ medium (Invitrogen, Cat. 31331-028) containing 10% FBS (Clontech, Cat. 631106), 1% Penicillin-Streptomycin (Invitrogen, Cat. 15140-122), 200 μg/ml Hygromycin B (Invitrogen, Cat. 10687-010), Blasticidin 5 μg/ml, (Invitrogen, Cat. R210-01), 4 μg/ml doxycycline (Clontech, Cat. 631311), 50 μl per well of 384 well plates (Greiner; Cat. 781091) and grown at 37° C. with 5% CQ. After overnight incubation, 10 μl/well of dilution series of the test compounds were added in quadruplicates and plates were further incubated overnight at 37° C. with 5% CO2. Cells were washed once with FACS buffer (PBS containing 1% FBS, 2 mM EDTA and 0.05% NaN3), harvested in FACS buffer with 0.5 μg/ml propidium iodide (Sigma, Cat. P4864) and analyzed in a flow cytometer (CANTO™ II, BD Biosciences) equipped with high throughput sampler. Live HEK #354 cells were gated as propidium iodide negative population and analyzed for expression of Fpn-GFP.

CC[C@H](C)[C@@H]1NC(=O)[C@@H](NC(=O)[C@@H](NC(=O)[C@@H]2CCCN2C(=O)[C@H](Cc2ccccc2)NC(=O)[C@H](Cc2c[nH]cn2)NC(=O)[C@@H](NC(=O)[C@@H](N)CC(=O)O)[C@@H](C)O)[C@@H](C)CC)CSSC[C@@H](C(=O)N[C@@H](CCCCN)C(=O)N[C@H](C(=O)O)[C@@H](C)O)NC(=O)[C@@H]2CSSC[C@@H]3NC(=O)[C@@H]4CSSC[C@H](NC(=O)[C@H](Cc5ccccc5)NC1=O)C(=O)N[C@@H](CSSC[C@H](NC(=O)[C@H](CCCCN)NC(=O)[C@H](CO)NC(=O)[C@H](CCCNC(=N)N)NC(=O)[C@H](Cc1c[nH]cn1)NC3=O)C(=O)NCC(=O)N[C@@H](CCSC)C(=O)N2)C(=O)NCC(=O)N4 [hepcidin, reference compound]
IC50 (human Fpn): 370 ± 67 nM
EC50 (human Fpn-GFP fusion [1]): 96 ± 63 nM
DC50 (human Fpn-GFP fusion [2]): 4 ± 2 nM
